The source of these data is US11986471B2, “Compounds and methods of use” (Tango Therapeutics, Inc., priority 2018, dated 2024).

Structures are written as SMILES.

In experiment [1] the target is T1, PRMT5 (Homo sapiens, UniProt O14744).
T1 construct: purchased Viva (custom protein)
Nature of the experiment: PRMT5 IC50 assay in the presence of SAM as cofactor. The format is biochemical. The essentials: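 Potency against PRMT5 is compared across cofactor states, where IC50 equals Ki×1.5 with SAM present and Ki×13.5 with MTA present.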

Experiment [2] concerns the target T1, PRMT5. Put plainly: PRMT5 IC50 assay with no cofactor. The format is biochemical. The essentials: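 Ki conversion: SAM arm, Ki=IC50/1.5; MTA arm, Ki=IC50/13.5. No-cofactor arm reported as IC50 only. Selectivity expressed as Ki(SAM)/Ki(MTA).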
Experiment [3] addresses T1, PRMT5. Put plainly: PRMT5 IC50 assay in the presence of MTA as cofactor. It counts as biochemical. Conditions: for IC50: PRMT5, MTA as cofactor; for SAM/MTA Ratio: ratio between the Ki in the presence of SAM and the Ki in the presence of MTA. The essentials: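 IC50 against PRMT5 determined with SAM as cofactor, with no cofactor, and with MTA as cofactor. Ki derived as IC50/1.5 for the SAM assay and IC50/13.5 for the MTA assay; SAM Ki to MTA Ki ratio also reported.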

For the next experiment, the system named is HAP1 MTAP-intact. Put plainly: SDMA in-cell western assay, HAP1 MTAP-intact cell line. It counts as cell-based. Conditions: Homo sapiens. An excerpt:
Table 1a also indicates IC50 values in an MTAP-isogenic cell line pair for exemplary compounds in an SDMA in-cell western assay (columns 7-8). HAP1 MTAP-intact is a cell line in which endogenous levels of MTAP are expressed, and HAP1 MTAP-deleted is an MTAP-null cell line. […] Compounds with a ratio in the SDMA in-cell western assay of equal to or greater than 3 fold are considered MTAP-selective.

Another experiment has as its system HAP1 MTAP-deleted. Nature of the experiment: SDMA in-cell western assay, HAP1 MTAP-deleted cell line. It counts as cell-based. Conditions: for IC50: Homo sapiens, HAP1 MTAP-deleted cell line; for MTAP Intact/Deleted Ratio: IC50 ratio HAP1 MTAP-intact / HAP1 MTAP-deleted. An excerpt:
Table 1a also indicates IC50 values in an MTAP-isogenic cell line pair for exemplary compounds in an SDMA in-cell western assay (columns 7-8). HAP1 MTAP-intact is a cell line in which endogenous levels of MTAP are expressed, and HAP1 MTAP-deleted is an MTAP-null cell line.

T1 sequence (O14744 whole entry): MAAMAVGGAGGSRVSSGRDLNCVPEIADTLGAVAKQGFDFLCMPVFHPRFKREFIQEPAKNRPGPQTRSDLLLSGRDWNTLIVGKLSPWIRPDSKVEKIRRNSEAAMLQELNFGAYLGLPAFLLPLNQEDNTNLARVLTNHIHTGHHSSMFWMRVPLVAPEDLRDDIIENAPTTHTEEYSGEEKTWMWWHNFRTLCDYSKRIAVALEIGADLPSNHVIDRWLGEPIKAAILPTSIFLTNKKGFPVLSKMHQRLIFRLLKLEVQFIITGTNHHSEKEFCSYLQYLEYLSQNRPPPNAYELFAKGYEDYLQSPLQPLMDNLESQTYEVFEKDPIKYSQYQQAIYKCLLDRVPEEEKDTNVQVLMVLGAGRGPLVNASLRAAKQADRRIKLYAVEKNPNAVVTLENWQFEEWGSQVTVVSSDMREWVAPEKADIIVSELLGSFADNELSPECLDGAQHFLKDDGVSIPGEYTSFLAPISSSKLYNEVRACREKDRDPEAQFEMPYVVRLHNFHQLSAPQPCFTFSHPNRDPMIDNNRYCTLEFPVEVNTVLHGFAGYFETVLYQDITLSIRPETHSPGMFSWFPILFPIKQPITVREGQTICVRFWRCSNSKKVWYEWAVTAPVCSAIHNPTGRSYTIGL
T1 sequence (Q9BQA1 whole entry partner): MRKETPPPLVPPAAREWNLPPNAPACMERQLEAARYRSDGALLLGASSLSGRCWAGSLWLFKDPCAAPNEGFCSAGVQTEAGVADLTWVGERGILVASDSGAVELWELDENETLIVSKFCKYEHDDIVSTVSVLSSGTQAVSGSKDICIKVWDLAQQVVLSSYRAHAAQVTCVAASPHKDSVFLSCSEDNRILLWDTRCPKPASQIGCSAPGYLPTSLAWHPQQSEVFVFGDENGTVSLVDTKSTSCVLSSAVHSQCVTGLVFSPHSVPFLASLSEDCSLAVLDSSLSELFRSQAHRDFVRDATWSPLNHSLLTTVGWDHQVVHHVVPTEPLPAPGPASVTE

In general, IC50 refers to the concentration at which inhibition is half-maximal. For `Cc1c(OCc2cnco2)ccc2c1CCN(C[C@@H](O)CNC(=O)c1ccnc(NC3CN(C(=O)C(C)C)C3)c1)C2` [Compound 550], the IC50 is 50 to 500 nM at PRMT5 [1]; at least 5000 nM against PRMT5 [2]; 50 to 500 nM at PRMT5 [3]; at least 10000 nM with HAP1 MTAP-intact; at least 10000 nM in the experiment with HAP1 MTAP-deleted. Further, the “SAM/MTA Ratio” value on PRMT5 [3] was “A (a Ki ratio greater than or equal to 10 fold between the Ki in the presence of SAM and the Ki in the presence of MTA)”. Further, the “MTAP Intact/Deleted Ratio” value with HAP1 MTAP-deleted is “C* (an IC50 ratio of less than 3 fold between the IC50 in the HAP1 MTAP-intact cell line and the HAP1 MTAP-deleted cell line)”.
As to `CC(=O)N1CCN(c2cc(C(=O)NC[C@H](O)CN3CCc4cc(OCc5cnco5)ccc4C3)cc(NC3CCC3)n2)CC1` [Compound 497, (S)-2-(4-acetylpiperazin-1-yl)-6-(cyclobutylamino)-N-(2-hydroxy-3-(6-(oxazol-5-ylmethoxy)-3N-dihydroisoquinolin-2(1H)-yl)propyl)isonicotinamide], the IC50 at PRMT5 [1] is 50 to 500 nM; on PRMT5 [2], 500 to 5000 nM; at PRMT5 [3], 50 to 500 nM; with HAP1 MTAP-intact it was 1000 to 10000 nM; in the experiment on HAP1 MTAP-deleted it was under 1000 nM. Moreover, the “SAM/MTA Ratio” value at PRMT5 [3] is “A (a Ki ratio greater than or equal to 10 fold between the Ki in the presence of SAM and the Ki in the presence of MTA)”. For the same compound, the “MTAP Intact/Deleted Ratio” value in the experiment with HAP1 MTAP-deleted is “C* (an IC50 ratio of less than 3 fold between the IC50 in the HAP1 MTAP-intact cell line and the HAP1 MTAP-deleted cell line)”.
In the case of `CC(=O)N1CCN(c2cc(C(=O)NC[C@H](O)CN3CCc4cc(OCc5ocnc5C)ccc4C3)cc(NC3CCC3)n2)CC1` [Compound 556, 2-(4-acetylpiperazin-1-yl)-6-(cyclobutylamino)-N-[(2S)-2-hydroxy-3-{6-[(4-methyl-1,3-oxazol-5-yl)methoxy]-1,2,3,4-tetrahydroisoquinolin-2-yl}propyl]pyridine-4-carboxamide], the IC50 is 50 to 500 nM at PRMT5 [1]; 500 to 5000 nM at PRMT5 [2]; 50 to 500 nM at PRMT5 [3]; under 1000 nM in the experiment with HAP1 MTAP-intact; under 1000 nM in the experiment with HAP1 MTAP-deleted. Also, at PRMT5 [3], the “SAM/MTA Ratio” value was “A (a Ki ratio greater than or equal to 10 fold between the Ki in the presence of SAM and the Ki in the presence of MTA)”. In the experiment on HAP1 MTAP-deleted, the “MTAP Intact/Deleted Ratio” value is “B* (an IC50 ratio greater than or equal to 3 fold but lower than 10 fold between the IC50 in the HAP1 MTAP-intact cell line and the HAP1 MTAP-deleted cell line)”.
As for `Cc1c(OCc2cnco2)ccc2c1CCN(C[C@@H](O)CNC(=O)c1cc(NC3CCC3)ccn1)C2` [Compound 515, 4-(cyclobutylamino)-N-[(2S)-2-hydroxy-3-{5-methyl-6-[(1,3-oxazol-5-yl)methoxy]-1,2,3,4-tetrahydroisoquinolin-2-yl}propyl]pyridine-2-carboxamide], the IC50 at PRMT5 [1] was 500 to 5000 nM; at PRMT5 [2], at least 5000 nM; at PRMT5 [3] it was 50 to 500 nM; with HAP1 MTAP-intact, 1000 to 10000 nM; in the experiment with HAP1 MTAP-deleted, 1000 to 10000 nM. Besides, the “SAM/MTA Ratio” value on PRMT5 [3] is “A (a Ki ratio greater than or equal to 10 fold between the Ki in the presence of SAM and the Ki in the presence of MTA)”. The “MTAP Intact/Deleted Ratio” value with HAP1 MTAP-deleted is “C* (an IC50 ratio of less than 3 fold between the IC50 in the HAP1 MTAP-intact cell line and the HAP1 MTAP-deleted cell line)”.
With `COCCN(C)c1cc(C(=O)NC[C@H](O)CN2CCc3c(ccc(OCc4ocnc4C)c3C)C2)cc(NC2CCN(C(C)=O)CC2)n1` [Compound 592], the IC50 at PRMT5 [1] is 50 to 500 nM; on PRMT5 [2], 500 to 5000 nM; on PRMT5 [3] it was 50 to 500 nM; in the experiment on HAP1 MTAP-intact, at least 10000 nM; in the experiment with HAP1 MTAP-deleted, under 1000 nM. For the same compound, the “SAM/MTA Ratio” value at PRMT5 [3] is “A (a Ki ratio greater than or equal to 10 fold between the Ki in the presence of SAM and the Ki in the presence of MTA)”. Moreover, the “MTAP Intact/Deleted Ratio” value with HAP1 MTAP-deleted was “A* (an IC50 ratio greater than or equal to 10 fold between the IC50 in the HAP1 MTAP-intact cell line and the HAP1 MTAP-deleted cell line)”.
